Assay results as given in patent US20150225739A1 (priority 2014, published 2015).
Where two headings read alike, the source gives them in different places.

Legend:
icp35 IRES [1] = assay: IRES activity under tunicamycin-induced ER stress, dual luciferase assay in Sf9 cells; assay type: cell-based, White spot syndrome virus; conditions: tunicamycin 2.5 μg/ml added 24 h post-transfection, 15 h of treatment
Experimental: After 15 h of treatment, cells were harvested. One replicate of the harvested cells was subjected to a dual luciferase assay as described above. The other replicate was subjected to Western blotting to monitor the level of the phosphorylated proteins. For this assay, 2× sample buffer was added to the cells and the mixture was boiled for 10 minutes. An aliquot (15 μl) was separated on 15% SDS-PAGE and transferred onto the PVDF membrane as described above. The blots were then blocked with 5% BSA in TBST (0.01% of Tween 20 in TBS buffer) for 1 h at RT, and probed with the commercial primary antibodies Phospho-eIF2α (Ser51) (Cell Signaling) or EIF2S1 (Abeam). The antibodies were diluted 1:1,000 in 2.5% non-fat milk in TBST and applied for 16 h at 4° C. This step was followed by washing three times for 10 min at RT with TBST. The blots were then probed with anti-Rabbit or anti-Mouse IgG secondary antibody (Santa Cruz Biotechnology) diluted 1:10,000 in 2.5% BSA in TBST for 1 hr at RT, and washed three times for 10 min at RT with TBST. Western Lightning® Plus-ECL reagents were used for visualization as described above.

[2] = test system: Encephalomyocarditis Virus (EMCV) IRES; conditions: dose-dependent; cited from earlier work
[3] = In vivo quinacrine dosage determination in shrimp (mortality); parameters: species or system Litopenaeus vannamei; conditions: injected 0.5, 2.5 or 5 μg/g body weight, 20 shrimp per group, 2 weeks
Experimental: To determine the optimal QC dosage for the challenge experiment, four groups of shrimp (20 shrimp per group) were injected with different doses ([…], 2.5 μg/g, or 5 μg/g body weight) of QC (10 mg/mL stock solution in PBS) or with PBS (negative control). The mortality of each group was observed and recorded every 12 h.
(§1) For the WSSV challenge experiment, groups of shrimp (14 shrimp per group) were injected either with WSSV (50 μl of 100× dilution of the virus stock) or with PBS as a negative control. These first injections were then immediately followed by a second injection of 50 μl of either QC (5 μg/g) or PBS. Pleopods were excised from 3 randomly selected shrimp from each group at 0, 1, 2, 6 and 9 days post-injection (dpi) and tested for WSSV infection as described below. A second replicate of this entire experiment was performed at the same time. No pleopods were collected from the shrimp in this second replicate. Instead, mortality was observed and recorded every 12 h.

[4] = test system: hepatitis C virus (HCV) IRES; conditions: dose-dependent; cited from earlier work
WSSV = assay: In vivo quinacrine assay and WSSV challenge experiment in shrimp; parameters: species or system Litopenaeus vannamei
Experimental: as §1
A commercial WSSV diagnostic kit (IQ2000 WSSV Detection and Prevention System, GeneReach Biotechnology Corp.) was used to determine WSSV infection levels. Briefly, genomic DNA extracted from the shrimp pleopod samples was isolated using the DTAB/CTAB extraction procedure according to the manufacturer's instructions. Next, competitive nested PCR analysis was performed using the extracted DNA samples. The PCR products were analyzed by electrophoresis with a 2% agarose gel. WSSV infection levels were determined according to the pattern of bands indicated in the kit's instructions.

cellular p53 IRES = conditions: cited from earlier work
poliovirus IRES = conditions: dose-dependent; cited from earlier work
icp35 IRES [5] = conditions: Sf9 cells, 48 h, relative to untreated

In the case of tunicamycin, the “cap-dependent translation (RL activity)” value (icp35 IRES [1]) is reported as “inhibited” and the “icp35 IRES-dependent translation (FL activity)” value (icp35 IRES [1]) is reported as “inhibited”.

In the case of `CCN(CC)CCCC(C)Nc1c2ccc(Cl)cc2nc2ccc(OC)cc12` (stereo not drawn) [QC, quinacrine dihydrochioride], the IRES activity [2] is given as “inhibited”, the “survival of unchallenged shrimp” value [3] is given as “All but one of the shrimp (in the 0.5 μg/g group) survived” and the IRES activity [4] is given as “inhibited”. The “mortality rate after WSSV challenge” value (WSSV; QC 5 μg/g injected immediately after WSSV inoculum, vs WSSV+PBS) was “significantly reduced”, the shrimp still alive (WSSV; WSSV+QC group, QC 5 μg/g, 9 dpi) was “over 70%” and the “WSSV infection level in surviving shrimp (IQ2000 nested competitive PCR)” value (WSSV; WSSV+QC sample collection group, 1, 2, 6 and 9 dpi) was “tested negative or had only a light infection”. For the same compound, the “sensitivity of IRES to QC” value (cellular p53 IRES) was “not sensitive”, the IRES activity (poliovirus IRES) was “inhibited” and the “FL value (IRES-mediated firefly luciferase activity)” value (icp35 IRES [5]; QC 25 μM) was “significantly reduced”. For the same compound, the FL/RL ratio (icp35 IRES [5]; QC 25 μM) was “significantly reduced”, the “FL value (IRES-mediated firefly luciferase activity)” value (icp35 IRES [5]; QC 30 μM) was “significantly reduced” and the FL/RL ratio (icp35 IRES [5]; QC 30 μM) was “significantly reduced”. For the same compound, the “RL value (cap-dependent Renilla luciferase activity)” value (icp35 IRES [5]; […], QC 25 μM or 30 μM) was “no significant effect”.
